According to publication PMC9513367 (2022):
Values belong to the molecule of their own block, whether it stands above or below them.

Legend:
[1] = tested on: Apt-M13 (DNA, aptamer) CGGGGGACGTTGCCAACGGTAACGTCGTTGGAT; experiment: AuNP colorimetric (A650/A520); conditions: NaCl 36.7 mM added, water, room temperature
[2] = tested on: Apt-T2 (DNA, aptamer) CGAGGGACGTTGCCAACGATAACGTCGTTGGAT; experiment: AuNP colorimetric (A650/A520); conditions: NaCl 36.7 mM added, water, room temperature
[3] = tested on: Apt-T1 (DNA, aptamer) CGAGGGACGAGGAGTACTTGCCAACGATAACGTCGTTGGAT; experiment: AuNP colorimetric (A650/A520); conditions: NaCl 36.7 mM added, water, room temperature
[4] = tested on: Apt1 (DNA, aptamer) ACACGACGAGGGACGAGGAGTACTTGCCAACGATAACGTCGTTGGATCTGTCTGTGCCC; experiment: AuNP colorimetric (A650/A520); conditions: NaCl 36.7 mM added, water, room temperature
[5] = tested on: Apt-T3 (DNA, aptamer) TTGCCAACGATAACGTCGTTGGAT; experiment: AuNP colorimetric (A650/A520); conditions: NaCl 36.7 mM added; water, room temperature; DEX titration
[6] = tested on: Apt-M12 (DNA, aptamer) CGAGGGACGTTGCCAACGGTAACGTGGTTGGAT; experiment: AuNP colorimetric (A650/A520); conditions: NaCl 36.7 mM added; water, room temperature; DEX titration
[7] = tested on: Apt-M9 (DNA, aptamer) CGAGGGACGTTGGCAACGGTAACGTCGTTGGAT; experiment: AuNP colorimetric (A650/A520); conditions: NaCl 36.7 mM added; water, room temperature; DEX titration
[8] = tested on: Apt-M15 (DNA, aptamer) CGAGGGACGTTGCCAACGATAAGGTGGTTGGAT; experiment: AuNP colorimetric (A650/A520); conditions: NaCl 36.7 mM added; water, room temperature; DEX titration
[9] = tested on: FAM-Apt1 (DNA, aptamer) ACACGACGAGGGACGAGGAGTACTTGCCAACGATAACGTCGTTGGATCTGTCTGTGCCC; experiment: graphene oxide fluorescence, saturation fit; conditions: water, 37 °C 2 h; aptamer 10-250 nM varied, DEX 1.5 μM fixed; GO:aptamer mass 200:1
[10] = tested on: Apt-M11 (DNA, aptamer) CGAGGGACGTTGCCAACGGTAAGGTCGTTGGAT; experiment: AuNP colorimetric (A650/A520); conditions: NaCl 36.7 mM added; water, room temperature; DEX titration
[11] = tested on: FAM-Apt-M13 (DNA, aptamer) CGGGGGACGTTGCCAACGGTAACGTCGTTGGAT; experiment: graphene oxide fluorescence, saturation fit; conditions: water, 37 °C 2 h; aptamer 10-250 nM varied, DEX 1.5 μM fixed; GO:aptamer mass 200:1
[12] = tested on: Apt-M13 (DNA, aptamer) CGGGGGACGTTGCCAACGGTAACGTCGTTGGAT; experiment: fluorescence enhancement of dye; conditions: water, room temperature; aptamer 50 nM stock, 1X SGI

Structure (SMILES): CCCC1O[C@@H]2C[C@H]3[C@@H]4CCC5=CC(=O)C=C[C@]5(C)[C@H]4[C@@H](O)C[C@]3(C)[C@]2(C(=O)CO)O1 (stereo partly shown)
- binding ([1]; 50 nmol/mL analog tested): no
- binding ([2]; 100 nmol/mL analog tested): no
- binding ([3]; 100 nmol/mL): yes
- binding ([4]; 100 nmol/mL analog tested): no

Structure (SMILES): O=C(N[C@H](CO)[C@H](O)c1ccc([N+](=O)[O-])cc1)C(Cl)Cl
- binding ([1]; 50 nmol/mL analog tested): no
- binding ([2]; 100 nmol/mL analog tested): no
- binding ([4]; 100 nmol/mL analog tested): no

Structure (SMILES): CCCN(CCCN(C)C)c1cc(C=C2Sc3ccccc3N2C)c2ccccc2[n+]1-c1ccccc1
- binding [12]: yes

More lines, now with the values ahead:

- binding ([1]; 50 nmol/mL analog tested): no
- binding ([2]; 100 nmol/mL analog tested): no
- binding ([4]; 100 nmol/mL analog tested): no
Structure (SMILES): C[C@]12CCC(=O)C=C1CC[C@@H]1[C@@H]2[C@@H](O)C[C@@]2(C)[C@H]1CC[C@]2(O)C(=O)CO

- binding [5]: yes
- binding [6]: yes
- binding [7]: yes
- binding ([1]; DEX titration): yes
- binding ([2]; DEX titration): yes
- binding [8]: yes
- binding ([3]; DEX titration): yes
- Kd [9]: 441 ± 180 nM
- binding ([4]; DEX titration): yes
- binding [10]: yes
- Kd [11]: 200 ± 93 nM
Structure (SMILES): C[C@@H]1C[C@H]2[C@@H]3CCC4=CC(=O)C=C[C@]4(C)[C@@]3(F)[C@@H](O)C[C@]2(C)[C@@]1(O)C(=O)CO

- binding ([1]; 50 nmol/mL analog tested): no
- binding ([2]; 100 nmol/mL analog tested): no
- binding ([4]; 100 nmol/mL analog tested): no
Structure (SMILES): CC(=O)OCC(=O)[C@@]1(O)CC[C@H]2[C@@H]3CCC4=CC(=O)C=C[C@]4(C)[C@H]3C(=O)C[C@@]21C
